From ChEMBL document CHEMBL4316596, “Antimicrobial Peptides with High Proteolytic Resistance for Combating Gram-Negative Bacteria” (J Med Chem, 2019)

Assays:
Escherichia coli [1] = test: Antimicrobial activity against Escherichia coli ATCC 25922 after 24 hrs by NCCLS-protocol based assay; assay type: functional; settings: ATCC 25922, 24 h
Escherichia coli [2] = test: Antimicrobial activity against Escherichia coli UB1005 after 24 hrs by NCCLS-protocol based assay; assay type: functional; settings: UB1005, 24 h
Escherichia coli [3] = test: Antimicrobial activity against Escherichia coli 078 after 24 hrs by NCCLS-protocol based assay; assay type: functional; settings: Escherichia coli, 078, 24 h
Escherichia coli [4] = test: Antimicrobial activity against Escherichia coli K88 after 24 hrs by NCCLS-protocol based assay; assay type: functional; settings: K88, 24 h
Escherichia coli [5] = test: Antimicrobial activity against Escherichia coli K99 after 24 hrs by NCCLS-protocol based assay; assay type: functional; settings: K99, 24 h
Pseudomonas aeruginosa [6] = test: Antimicrobial activity against Pseudomonas aeruginosa ATCC 27853 after 24 hrs by NCCLS-protocol based assay; assay type: functional; settings: ATCC 27853, 24 h
Pseudomonas aeruginosa [7] = test: Antimicrobial activity against Pseudomonas aeruginosa PAO1 after 24 hrs by NCCLS-protocol based assay; assay type: functional; settings: PAO1, 24 h
Pseudomonas aeruginosa [8] = test: Antimicrobial activity against Pseudomonas aeruginosa CICC 21630 clinical isolates after 24 hrs by NCCLS-protocol based assay; assay type: functional; settings: CICC 21630, 24 h
Pseudomonas aeruginosa [9] = test: Antimicrobial activity against Pseudomonas aeruginosa 26305 clinical isolates after 24 hrs by NCCLS-protocol based assay; assay type: functional; settings: Pseudomonas aeruginosa, 26305, 24 h
Pseudomonas aeruginosa [10] = test: Antimicrobial activity against Pseudomonas aeruginosa CICC 21625 clinical isolates after 24 hrs by NCCLS-protocol based assay; assay type: functional; settings: CICC 21625, 24 h
Pseudomonas aeruginosa [11] = test: Antimicrobial activity against Pseudomonas aeruginosa 25349 clinical isolates after 24 hrs by NCCLS-protocol based assay; assay type: functional; settings: Pseudomonas aeruginosa, 25349, 24 h
Salmonella typhimurium [12] = test: Antimicrobial activity against Salmonella typhimurium ATCC 14028 after 24 hrs by NCCLS-protocol based assay; assay type: functional, Salmonella enterica subsp. enterica serovar Typhimurium; settings: Salmonella enterica, ATCC 14028, 24 h
Salmonella typhimurium [13] = test: Antimicrobial activity against Salmonella typhimurium C7731 after 24 hrs by NCCLS-protocol based assay; assay type: functional, Salmonella enterica subsp. enterica serovar Typhimurium; settings: Salmonella enterica, C7731, 24 h
[14] = Antimicrobial activity against Salmonella pullorum C7913 after 24 hrs by NCCLS-protocol based assay; assay type: functional, Salmonella enterica subsp. enterica serovar Pullorum; settings: Salmonella enterica, C7913, 24 h
Acinetobacter baumannii [15] = test: Antimicrobial activity against Acinetobacter baumannii after 24 hrs by NCCLS-protocol based assay; assay type: functional
Klebsiella pneumoniae [16] = test: Antimicrobial activity against Klebsiella pneumoniae after 24 hrs by NCCLS-protocol based assay; assay type: functional
Escherichia coli [17] = test: Bactericidal activity against Escherichia coli ATCC 25922 incubated for 4 hrs followed by culture spread on agar plates and cultured overnight; assay type: functional; settings: ATCC 25922, 4 h, read-out: MBC>99.9
Escherichia coli [18] = test: Bactericidal activity against Escherichia coli UB1005 incubated for 4 hrs followed by culture spread on agar plates and cultured overnight; assay type: functional; settings: UB1005, 4 h, read-out: MBC>99.9
Escherichia coli [19] = test: Bactericidal activity against Escherichia coli 078 incubated for 4 hrs followed by culture spread on agar plates and cultured overnight; assay type: functional; settings: Escherichia coli, 078, 4 h; read-out: MBC>99.9
Escherichia coli [20] = test: Bactericidal activity against Escherichia coli K88 incubated for 4 hrs followed by culture spread on agar plates and cultured overnight; assay type: functional; settings: K88, 4 h, read-out: MBC>99.9
Escherichia coli [21] = test: Bactericidal activity against Escherichia coli K99 incubated for 4 hrs followed by culture spread on agar plates and cultured overnight; assay type: functional; settings: K99, 4 h, read-out: MBC>99.9
Pseudomonas aeruginosa [22] = test: Bactericidal activity against Pseudomonas aeruginosa ATCC 27853 incubated for 4 hrs followed by culture spread on agar plates and cultured overnight; assay type: functional; settings: ATCC 27853, 4 h, read-out: MBC>99.9
Pseudomonas aeruginosa [23] = test: Bactericidal activity against Pseudomonas aeruginosa PAO1 incubated for 4 hrs followed by culture spread on agar plates and cultured overnight; assay type: functional; settings: PAO1, 4 h, read-out: MBC>99.9
Pseudomonas aeruginosa [24] = test: Bactericidal activity against Pseudomonas aeruginosa CICC 21630 clinical isolates incubated for 4 hrs followed by culture spread on agar plates and cultured overnight; assay type: functional; settings: CICC 21630, 4 h, read-out: MBC>99.9
Pseudomonas aeruginosa [25] = test: Bactericidal activity against Pseudomonas aeruginosa 26305 clinical isolates incubated for 4 hrs followed by culture spread on agar plates and cultured overnight; assay type: functional; settings: Pseudomonas aeruginosa, 26305, 4 h; read-out: MBC>99.9
Pseudomonas aeruginosa [26] = test: Bactericidal activity against Pseudomonas aeruginosa CICC 21625 clinical isolates incubated for 4 hrs followed by culture spread on agar plates and cultured overnight; assay type: functional; settings: CICC 21625, 4 h, read-out: MBC>99.9
Pseudomonas aeruginosa [27] = test: Bactericidal activity against Pseudomonas aeruginosa 25349 clinical isolates incubated for 4 hrs followed by culture spread on agar plates and cultured overnight; assay type: functional; settings: Pseudomonas aeruginosa, 25349, 4 h; read-out: MBC>99.9
Salmonella typhimurium [28] = test: Bactericidal activity against Salmonella typhimurium ATCC 14028 incubated for 4 hrs followed by culture spread on agar plates and cultured overnight; assay type: functional, Salmonella enterica subsp. enterica serovar Typhimurium; settings: Salmonella enterica, ATCC 14028, 4 h; read-out: MBC>99.9
Salmonella typhimurium [29] = test: Bactericidal activity against Salmonella typhimurium C7731 incubated for 4 hrs followed by culture spread on agar plates and cultured overnight; assay type: functional, Salmonella enterica subsp. enterica serovar Typhimurium; settings: Salmonella enterica, C7731, 4 h; read-out: MBC>99.9
[30] = Bactericidal activity against Salmonella pullorum C7913 incubated for 4 hrs followed by culture spread on agar plates and cultured overnight; assay type: functional, Salmonella enterica subsp. enterica serovar Pullorum; settings: Salmonella enterica, C7913, 4 h; read-out: MBC>99.9
Acinetobacter baumannii [31] = test: Bactericidal activity against Acinetobacter baumannii incubated for 4 hrs followed by culture spread on agar plates and cultured overnight; assay type: functional; settings: read-out: MBC>99.9
Klebsiella pneumoniae [32] = test: Bactericidal activity against Klebsiella pneumoniae incubated for 4 hrs followed by culture spread on agar plates and cultured overnight; assay type: functional; settings: read-out: MBC>99.9

H-IKPIIKPIIKPIIKPI-NH2
> 64 µM: MIC95 (Escherichia coli [1]) | MIC95 (Escherichia coli [2]) | MIC95 (Escherichia coli [3]) | MIC95 (Escherichia coli [4]) | MIC95 (Escherichia coli [5]) | MIC95 (Pseudomonas aeruginosa [6]) | MIC95 (Pseudomonas aeruginosa [7]) | MIC95 (Pseudomonas aeruginosa [8]) | MIC95 (Pseudomonas aeruginosa [9]) | MIC95 (Pseudomonas aeruginosa [10]) | MIC95 (Pseudomonas aeruginosa [11]) | MIC95 (Salmonella typhimurium [12]) | MIC95 (Salmonella typhimurium [13]) | MIC95 [14] | MIC95 (Acinetobacter baumannii [15]) | MIC95 (Klebsiella pneumoniae [16]) | MBC (Escherichia coli [17]) | MBC (Escherichia coli [18]) | MBC (Escherichia coli [19]) | MBC (Escherichia coli [20]) | MBC (Escherichia coli [21]) | MBC (Pseudomonas aeruginosa [22]) | MBC (Pseudomonas aeruginosa [23]) | MBC (Pseudomonas aeruginosa [24]) | MBC (Pseudomonas aeruginosa [25]) | MBC (Pseudomonas aeruginosa [26]) | MBC (Pseudomonas aeruginosa [27]) | MBC (Salmonella typhimurium [28]) | MBC (Salmonella typhimurium [29]) | MBC [30] | MBC (Acinetobacter baumannii [31]) | MBC (Klebsiella pneumoniae [32])

H-IKPIIKPIIKPIIKPIIKPI-NH2
> 64 µM: MIC95 (Escherichia coli [1]) | MIC95 (Escherichia coli [2]) | MIC95 (Escherichia coli [3]) | MIC95 (Escherichia coli [4]) | MIC95 (Escherichia coli [5]) | MIC95 (Pseudomonas aeruginosa [6]) | MIC95 (Pseudomonas aeruginosa [7]) | MIC95 (Pseudomonas aeruginosa [8]) | MIC95 (Pseudomonas aeruginosa [9]) | MIC95 (Pseudomonas aeruginosa [10]) | MIC95 (Pseudomonas aeruginosa [11]) | MIC95 (Salmonella typhimurium [12]) | MIC95 (Salmonella typhimurium [13]) | MIC95 [14] | MIC95 (Acinetobacter baumannii [15]) | MIC95 (Klebsiella pneumoniae [16]) | MBC (Escherichia coli [17]) | MBC (Escherichia coli [18]) | MBC (Escherichia coli [19]) | MBC (Escherichia coli [20]) | MBC (Escherichia coli [21]) | MBC (Pseudomonas aeruginosa [22]) | MBC (Pseudomonas aeruginosa [23]) | MBC (Pseudomonas aeruginosa [24]) | MBC (Pseudomonas aeruginosa [25]) | MBC (Pseudomonas aeruginosa [26]) | MBC (Pseudomonas aeruginosa [27]) | MBC (Salmonella typhimurium [28]) | MBC (Salmonella typhimurium [29]) | MBC [30] | MBC (Acinetobacter baumannii [31]) | MBC (Klebsiella pneumoniae [32])
